Results published in US12070464B2, “Methods of treating myeloproliferative disorders” (priority 2019, dated 2024).

Experiments:
[1] = test system: patients with myelofibrosis; experiment: Initial human clinical data set, four patients (combination and monotherapy arms); format: in vivo
Source text: Two myelofibrosis patients to enroll (Patients 245 and 246) received Compound 1 in combination with ruxolitinib and received 18 treatment cycles (11 months of treatment). The other two patients to enroll (Patients 247 and 248) received 10 cycles of Compound 1 as monotherapy (6 months of treatment). […] One of the patients who was transfusion dependent at study entry became transfusion independent (defined as >12 weeks without the need for a red blood cell (RBC) transfusion. Indeed, 7 months had elapsed since their last transfusion.
All four patients experienced an increase in their hemoglobin levels with multiple treatment cycles with Compound 1. In addition, one of the patients who entered the study with uncontrolled thrombocytosis (baseline platelets were 895×10^9/L) experienced a normalization of their platelet counts within the first month of monotherapy treatment with Compound 1. The patient's platelet counts remained normal for more than 20 weeks. This patient's thrombocytosis was also accompanied by severe headaches requiring multiple hospital admission. Following treatment with Compound 1, however, the patient's headaches were resolved. Brief narratives for all four patients treated for at least 6 months are presented below.
At entry into the study with Compound 1, their spleen volume by MRI was 1404 cc and was 12 cm by palpation. The patient presented with early satiety, night sweats, and dyspnea at the start of the study. […] The lowest spleen volume by MRI was 1144 cc, a 19% reduction, at the 6-month MM. The dose of ruxolitinib was reduced on Cycle 10 to 7.5 mg BID to address decreasing platelet count.
When Patient 246 initiated combination treatment with Compound 1 125 mg QD and ruxolitinib 10 mg BID their spleen volume was 607 cc by MRI and 2 cm by palpation and they required regular transfusions (2 units of RBC every 3-4 weeks).
The patient also presented with uncontrolled thrombocytosis at study entry (platelet count of 895×10^9/L at baseline) despite hydroxyurea. In addition, the patient had experienced persistent and debilitating headaches that required multiple hospital admissions for pain control. Their platelets were normalized after receiving their first two weeks of Compound 1 monotherapy (183 x10^9/L) and have remained within the normal range for the remainder of the time they have been on study (see FIG. 6). Within 2 months on Compound 1 monotherapy, the patient's severe headaches had resolved; their night sweats were less frequent; and a 37% reduction in symptoms was assessed by the Myeloproliferative Neoplasm Symptom (MNS) score. Their ECOG performance score decreased from 2 to 1 after two treatment cycles with CPI-0610 and a 25% decrease in spleen volume (640 cc) was assessed by MRI after 8 treatment cycles, the most recent measurement.
Their constitutional symptoms at study entry included fatigue, early satiety, and difficulty concentrating. […] The patient was reinitiated with a reduced Compound 1 dose of 175 mg at the beginning of Cycle 2, which has been tolerated for the remaining time on study (>6 months). While the patient's spleen has shown minimal change through palpation a spleen volume reduction of 11% (1023 cc) was measured by MRI after 3 months on treatment with Compound 1. Their MNS score improved 19% after 2 months on the 175 mg QD dose and after 6 months of Compound 1 treatment their bone marrow fibrosis grade decreased from MF-2 at baseline to MF-1 based on a local pathologist's assessment.

[2] = test system: patients with refractory or intolerant myelofibrosis already being administered Rux; experiment: Phase 2 study, Arm 2 (Compound 1 add-on to ruxolitinib); format: in vivo, human
Experimental: A Phase 2 study of Compound 1 in subjects with myelofibrosis (MF) was conducted. Three treatment arms were studied: Arm 2=combination add-on treatment of Compound 1 in patients (pts) who are already being administered Rux. In this arm patients were further stratified based on transfusion dependence status [transfusion dependent (TD), defined as an average of >2 units per month over 12 wks, or non-TD cohorts]. The starting dose of Compound 1 was 125 mg daily on days 1-14 of a 21-day cycle in both arms. Primary endpoint: spleen volume response (SVR) for non-TD cohorts or TD to transfusion independence (TI, no transfusion for consecutive 12 wks) conversion for TD cohorts; secondary endpoints: change in total symptom score (TSS) per […]4.0, patient global impression of change (PGIC), safety and PK; additional endpoints: changes in proinflammatory Ck levels, BM morphology and mutant allele burden. The starting dose of Compound 1 was 125 mg given orally, once daily for 2 weeks on/1 week off in a 21-day dosing cycle. Two separate time points for data analysis occurred for at least Arms 1 and 2 and are discussed below: one at approximately 12 weeks of treatment (first assessment of spleen volume by MRI or CT and every 12 weeks thereafter) and another at approximately 24 weeks of treatment (first assessment of bone marrow biopsy and every 24 weeks thereafter). Patients were added to the study following the first time point. Patients were added to the study following the first data cut and treatment was continued for approximately 25.9 weeks (median, range: 0.4, 116.6).

[3] = Time Point 1, Compound 1 with ruxolitinib

Cc1noc2c1-c1ccccc1C(c1ccc(Cl)cc1)=N[C@H]2CC(N)=O [Compound 1, 2-((4S)-6-(4-chlorophenyl)-1-methyl-4H-benzo[c]isoxazolo[4,5-e]azepin-4-yl)acetamide]
spleen volume reduction ([1]; Patient 245, 6-month MRI, with ruxolitinib): 19%
lowest spleen volume by MRI ([1]; Patient 245, 6-month MRI, with ruxolitinib, 1404 cc at entry): 1144 cc
spleen size ([1]; Patient 245, after 4 weeks of therapy with Compound 1 and ruxolitinib, 12 cm before): 5 cm
spleen by palpation ([1]; Patient 245, within 4 months, Compound 1 125 mg QD and ruxolitinib 15 mg BID, 12 cm at entry): 5 cm
time to transfusion independence ([1]; Patient 246, Compound 1 125 mg QD titrated to 175 mg QD and ruxolitinib 10 mg BID, TI = >12 weeks without transfusion and hemoglobin >8 g/dL): ≤ 7 months
reduction in spleen volume ([1]; Patient 246, by Cycle 12, with ruxolitinib): 37%
spleen volume ([1]; Patient 246, by Cycle 12, with ruxolitinib, 607 cc at start): 380 cc
most recent hemoglobin measurement ([1]; Patient 246, with ruxolitinib): 10.9 g/dL
decrease in spleen volume by MRI ([1]; Patient 247, after 8 treatment cycles, monotherapy): 25%
spleen volume by MRI ([1]; Patient 247, after 8 treatment cycles, monotherapy, 858 cc at entry): 640 cc
platelets ([1]; Patient 247, after first two weeks of monotherapy, 895×10^9/L at baseline): 1.83e+11 L⁻¹
ECOG performance score ([1]; Patient 247, after two treatment cycles, from 2, monotherapy): 1
reduction in symptoms by Myeloproliferative Neoplasm Symptom (MNS) score ([1]; Patient 247, within 2 months, monotherapy): 37%
time reduced dose has been tolerated ([1]; Patient 248, 175 mg from Cycle 2): > 6 months
MNS score improvement ([1]; Patient 248, after 2 months on 175 mg QD): 19%
spleen volume reduction by MRI ([1]; Patient 248, after 3 months, monotherapy): 11%
spleen volume by MRI ([1]; Patient 248, after 3 months, monotherapy, 1148 cc at entry): 1023 cc
hemoglobin level after treatment ([1]; from about 8 g/dl, FIG. 5): about 10.9 g/dl
tolerability of starting dose ([1]; human, in vivo): did not tolerate
time elapsed since last transfusion ([1]; patient who was transfusion dependent at study entry): 7 months
time platelet counts remained normal ([1]; patient with uncontrolled thrombocytosis (Patient 247), monotherapy): more than 20 weeks
hemoglobin level after treatment ([1]; patients 247 and 248, from about 8 g/dL): about 11.5 g/dL
TD patients converted to TI [2, 3]: 4 patients
duration of TI in 2 of the converted patients [2, 3]: > 36 wks
patients with increase in hemoglobin by 1.5 mg/dL post-baseline ([2]; Time Point 1, Compound 1 with ruxolitinib, 4 of 25): 16%
average spleen volume reduction ([2]; Time Point 2, 24 weeks, non-transfusion dependent at start, FIG. 12A): about −10.9%
average spleen volume reduction ([2]; Time Point 2, 24 weeks, transfusion dependent at start): about −24.9%
patients converted from transfusion dependent to transfusion independent ([2]; Time Point 2, 24 weeks, transfusion dependent at start, FIG. 10A): about 35%
average time of conversion from TD to TI ([2]; Time Point 2, Arm 2): about 14 weeks
average transfusion free time post-conversion ([2]; Time Point 2, Arm 2): about 14 weeks
maximum transfusion free time post-conversion ([2]; Time Point 2, Arm 2): 85 weeks
patients with greater than or equal to a 50% reduction in transfusion intensity ([2]; Time Point 2, Arm 2): About 41%
patients with improvement in bone marrow fibrosis ([2]; Time Point 2, non-transfusion dependent at start): about 25%
patients with improvement in disease symptoms per TSS ([2]; Time Point 2, non-transfusion dependent at start, FIG. 12B): About 38%
patients with improved PGIC ([2]; Time Point 2, non-transfusion dependent at start, FIG. 12C): about 69%
patients with improvement in disease symptoms per TSS ([2]; Time Point 2, transfusion dependent at start, FIG. 10B): About 76.5%
patients with improved PGIC ([2]; Time Point 2, transfusion dependent at start, FIG. 10C): about 75%
